≈ marks a conversion by molar mass, not a printed value. Values belong to the compound of their own block, whether it stands above or below them.
Assays:
Gram-negative bacteria [1] = assay: MIC of ester and amide side chain compounds (Table 14); assay type: cell-based; conditions: strain not given
Protocol: (§1) Aliquots of 1 mL of the suspension were added to test tubes containing 1 mL TSB and incrementally varied concentrations of cholic acid derivatives and/or erythromycin or novobiocin. In the sensitization experiments, erythromycin or novobiocin were added 15 minutes later than the cholic acid derivatives. The samples were subjected to stationary incubation at 37° C. for 24 hours. Sample turbidity was determined by measuring absorption at 760 nm (HP 8453 UV-Visible Chemstation, Hewlett Packard). Additionally, an alliquot from each of the samples showing no measurable turbidity was subcultured on TSA plates (alliquots were diluted to provide fewer than 300 CFU). Colonies that grew on the subculture after overnight incubation were counted and the number of CFU/mL in the samples were calculated. The calculated values were compared to the number of CFU/mL in the original inoculum.
(§2) Ester and amide side chains: Additional compounds, for example, compounds with amide and ester side chains, were tested.

Gram-negative bacteria [2] = assay: Sensitization to erythromycin, ester and amide side chain compounds (Table 14); assay type: cell-based; conditions: Table 14; strain not given
Protocol: as §1
(§3) Ability to permeabilize outer membrane: Compounds 11, 106, and 108-114 (FIG. 1) were tested for antibiotic activity. They were also tested for the ability to permeabilize the outer membrane of Gram-negative bacteria, causing sensitization to hydrophobic antibiotics that cannot cross the outer membrane. The permeabilization of the outer membrane was measured using erythromycin and novobiocin.
as §2

Gram-negative bacteria [3] = assay: Sensitization to novobiocin, ester and amide side chain compounds (Table 14); assay type: cell-based; conditions: strain not given
Protocol: as §1, §3, §2

E. coli (ATCC 10798) [4] = assay: MIC and MBC measurement with E. coli (ATCC 10798); assay type: cell-based, Escherichia coli; conditions: Table 1; E. coli (ATCC 10798)
Text: (§4) General: Microorganisms. Reference strains were purchased from the American Type Culture Collection (Rockville, Md.) or Bactrol disks from Difeo Laboratories (Detroit, Mich.). The following specific ATCC strains were used: 10798 Escherichia coli, 25922 Escherichia coli, 13883 Klebsiella pneumoniae, 27853 Pseudomonas aeruginosa, 14028 Salmonella typhimurium, 29212 Enterococcus faecalis, 25923 Staphylococcus aureus, 19615 Streptococcus pyogenes, and 90028 Candida albicans. Bacterial strains were maintained on Mueller-Hinton agar plates, and Candida albicans was maintained on Sabouraud Dextrose agar plates.
(§5) Tryptic soy broth (TSB) was made by dissolving 27.5 grams of tryptic soy broth without dextrose (DIFCO Laboratories) in 1 liter of deionized water and sterilizing at 121° C. for 15 minutes. Solid agar (TSA) plates were made by dissolving 6.4 grams of tryptic soy broth and 12 grams of agar (purified grade, Fischer Scientific) in 800 mL of deionized water and sterilizing at 121° C. for 20 minutes. Aliquots (20 mL) of the homogeneous solution were then poured in sterile plastic petri dishes (100×15 mm, Fisher Scientific). Solutions of compounds were made by dissolving the HCl salt of the respective compound into an appropriate amount of deionized and sterilized water followed by microfiltration.
as §1

E. coli (ATCC 10798) [5] = assay: Sensitization to erythromycin (concentration lowering the MIC of erythromycin), E. coli (ATCC 10798); assay type: cell-based, Escherichia coli; conditions: Table 2, E. coli (ATCC 10798)
Protocol: (§6) Alternatively, “fractional inhibitory concentration (FIC)” is also useful for determination of synergy between the compounds of the invention, or the compounds in combination with known antibiotics. FICs can be performed by checkerboard titrations of compounds in one dimension of a microtiter plate, and of antibiotics in the other dimension, for example. The FIC is calculated by looking at the impact of one antibiotic on the MIC of the other and vice versa. […] Preferably, an FIC of less than 0.5 is obtained for synergism. As used herein, FIC can be determined as follows:
as §1, §3
(§7) The MICs of erythromycin and novobiocin against E. coli (ATCC 10798) at 70 and >500 μg/mL were measured.

E. coli (ATCC 10798) [6] = assay: Sensitization to novobiocin (concentration lowering the MIC of novobiocin), E. coli (ATCC 10798); assay type: cell-based, Escherichia coli; conditions: Table 3, E. coli (ATCC 10798)
Protocol: as §6, §1, §3, §7

E. coli (ATCC 25922) [7] = assay: MIC and MBC measurement with E. coli (ATCC 25922); assay type: cell-based, Escherichia coli
Text: as §4, §5
as §1, with “inoculum. […]” for “inoculum.”

E. coli (ATCC 25922) [8] = assay: Sensitization to erythromycin, E. coli (ATCC 25922); assay type: cell-based, Escherichia coli
Protocol: FICs can be performed by checkerboard titrations of compounds in one dimension of a microtiter plate, and of antibiotics in the other dimension, for example. The FIC is calculated by looking at the impact of one antibiotic on the MIC of the other and vice versa. […] Preferably, an FIC of less than 0.5 is obtained for synergism. As used herein, FIC can be determined as follows:
as §1
Concentrations of 0.5, 1.0 or 3.0 μg/mL of these antibiotics were used, and the concentrations of the cholic acid derivatives required to inhibit bacterial growth of Gram-negative strains were determined.
(§8) Minimum inhibition concentrations (MIC) and minimum hemolytic concentrations (MHC) were measured as described in Li et al., Antimicrob. Agents. Chemother., 1999, 43, 1347.

[9] = system: Pseudomonas aeruginosa (ATCC 27853); assay: MIC and MBC measurement with Pseudomonas aeruginosa (ATCC 27853); assay type: cell-based
Text: as §4, §5, §1

[10] = system: Pseudomonas aeruginosa (ATCC 27853); assay: Sensitization to erythromycin, Pseudomonas aeruginosa (ATCC 27853); assay type: cell-based
Protocol: as §6
as §1, with “inoculum. […]” for “inoculum.”
(§9) To measure permeabilization, the FIC values for compounds 1, 2, 5, 106, 10, 112, 133, and 134 with erythromycin, novobiocin, and rifampicin were determined. Concentrations of 0.5, 1.0 or 3.0 μg/mL of these antibiotics were used, and the concentrations of the cholic acid derivatives required to inhibit bacterial growth of Gram-negative strains were determined.

[11] = system: Pseudomonas aeruginosa (ATCC 27853); assay: Sensitization to novobiocin, Pseudomonas aeruginosa (ATCC 27853); assay type: cell-based; conditions: Table 8; P. aureginosa (ATCC 27853)
Protocol: as §6
as §1, with “inoculum. […]” for “inoculum.”
as §9

[12] = system: Klebsiella pneumonia ATCC 13883; assay: MIC and MBC measurement with Klebsiella pneumoniae ATCC 13883; assay type: cell-based; conditions: Table 10
Text: as §4, §5, §1

[13] = system: Salmonella typhimurium ATCC 14028; assay: MIC and MBC measurement with Salmonella typhimurium ATCC 14028; assay type: cell-based; conditions: Table 10
Text: as §4, §5, §1

[14] = system: Enterococcus faecalis ATCC 29212; assay: MIC and MBC measurement with Enterococcus faecalis ATCC 29212; assay type: cell-based; conditions: Table 10
Text: as §4, §5, §1

[15] = system: Staphylococcus aureus ATCC 25923; assay: MIC and MBC measurement with Staphylococcus aureus ATCC 25923; assay type: cell-based; conditions: Table 10; Staphylococcus aureus ATCC 25923
Text: as §4, §5
as §1, with “inoculum. […]” for “inoculum.”

[16] = system: Streptococcus pyrogenes ATCC 19615; assay: MIC and MBC measurement with Streptococcus pyogenes ATCC 19615; assay type: cell-based; conditions: Table 10
Text: as §4, §5, §1

[17] = system: Candida albicans ATCC 90028; assay: MIC and MBC measurement with Candida albicans ATCC 90028; assay type: cell-based; conditions: Table 10
Text: as §4, §5, §1

[18] = Protocol: as §8
[19] = Table 10, Escherichia coli ATCC 25922
[20] = Table 6, P. aureginosa (ATCC 27853)
[21] = Table 10, Pseudomonas aeruginosa ATCC 27853

Structure (SMILES): C[C@H](CCCN(C)Cc1ccccc1)[C@H]1CC[C@H]2[C@@H]3[C@H](NC(=O)CN)C[C@@H]4C[C@H](NC(=O)CN)CC[C@]4(C)[C@H]3C[C@H](NC(=O)CN)[C@]12C [Compound 210a]
- MIC (Gram-negative bacteria [1]): 80 µg/mL
- a: concentration of cholic acid derivatives required to lower MIC of erythromycin to 1 μg/ML (Gram-negative bacteria [2]): 6 µg/mL
- b: concentration of cholic acid derivatives required to lower MIC of novobiocin to 1 μg/ML (Gram-negative bacteria [3]): 18 µg/mL

Structure (SMILES): C[C@H](CCCN(C)Cc1ccccc1)[C@H]1CC[C@H]2[C@@H]3[C@H](NC(=O)CCN)C[C@@H]4C[C@H](NC(=O)CCN)CC[C@]4(C)[C@H]3C[C@H](NC(=O)CCN)[C@]12C [Compound 210b]
- MIC (Gram-negative bacteria [1]): 100 µg/mL
- a: concentration of cholic acid derivatives required to lower MIC of erythromycin to 1 μg/ML (Gram-negative bacteria [2]): 15 µg/mL
- b: concentration of cholic acid derivatives required to lower MIC of novobiocin to 1 μg/ML (Gram-negative bacteria [3]): 40 µg/mL

Structure (SMILES): C[C@H](CCCO)[C@H]1CC[C@H]2[C@@H]3[C@H](NC(=O)CN)C[C@@H]4C[C@H](NC(=O)CN)CC[C@]4(C)[C@H]3C[C@H](NC(=O)CN)[C@]12C [Compound 209a]
- MIC (Gram-negative bacteria [1]): >100 µg/mL
- a: concentration of cholic acid derivatives required to lower MIC of erythromycin to 1 μg/ML (Gram-negative bacteria [2]): 25 µg/mL
- b: concentration of cholic acid derivatives required to lower MIC of novobiocin to 1 μg/ML (Gram-negative bacteria [3]): 75 µg/mL

- MIC (E. coli (ATCC 10798) [4]): 2 µg/mL (≈ 2.52 µM)
- MIC (E. coli (ATCC 25922) [7]; Table 4, E. coli (ATCC 25922)): 2 µg/mL (≈ 2.52 µM)
- MIC (E. coli (ATCC 25922) [7]; [19]): 1.4 µg/mL (≈ 1.76 µM)
- MIC [9, 20]: 6 µg/mL (≈ 7.55 µM)
- MIC [9, 21]: 5.9 µg/mL (≈ 7.42 µM)
- MIC [12]: 3.0 µg/mL (≈ 3.77 µM)
- MIC [13]: 2.2 µg/mL (≈ 2.77 µM)
- MIC [14]: 2.2 µg/mL (≈ 2.77 µM)
- MIC [15]: 0.6 µg/mL (≈ 0.755 µM)
- MIC [16]: 2.0 µg/mL (≈ 2.52 µM)
- MIC [17]: 11 µg/mL (≈ 13.8 µM)
- MHC [18]: 26 µg/mL
Structure (SMILES): C[C@H](CCCN(C)Cc1ccccc1)[C@H]1CC[C@H]2[C@@H]3[C@H](OCCCNC(=N)N)C[C@@H]4C[C@H](OCCCNC(=N)N)CC[C@]4(C)[C@H]3C[C@H](OCCCNC(=N)N)[C@]12C [Compound 5]
- MBC (E. coli (ATCC 10798) [4]): 4 µg/mL (≈ 5.03 µM)
- MIC: concentration required to lower the MIC of erythromycin from 70 μg/mL to 1 μg/mL (E. coli (ATCC 10798) [5]): 1 µg/mL
- MBC (with erythromycin) (E. coli (ATCC 10798) [5]; erythromycin sensitization): 3 µg/mL
- MIC: concentration required to lower the MIC of novobiocin from >500 μg/mL to 1 μg/mL (E. coli (ATCC 10798) [6]): 2 µg/mL
- MBC (with novobiocin) (E. coli (ATCC 10798) [6]; novobiocin sensitization): 4 µg/mL
- MBC (E. coli (ATCC 25922) [7]; Table 4, E. coli (ATCC 25922)): 4 µg/mL (≈ 5.03 µM)
- MBC (E. coli (ATCC 25922) [7]; [19]): 3.8 µg/mL (≈ 4.78 µM)
- MIC: concentration required to lower the MIC of erythromycin from 60 μg/mL to 1 μg/mL (E. coli (ATCC 25922) [8]; Table 5, E. coli (ATCC 25922)): 1.5 µg/mL
- MBC (with erythromycin) (E. coli (ATCC 25922) [8]; Table 5, E. coli (ATCC 25922), erythromycin sensitization): 1.5 µg/mL
- FIC (E. coli (ATCC 25922) [8]; Table 11, Escherichia coli ATCC 25922, erythromycin (by order)): 0.31
- concentration required to inhibit bacterial growth with antibiotic (E. coli (ATCC 25922) [8]; Table 11, Escherichia coli ATCC 25922, erythromycin (by order) at 0.5, 1.0 or 3.0 μg/mL): 0.38 µg/mL
- MBC [9, 20]: 15 µg/mL (≈ 18.9 µM)
- MBC [9, 21]: 9.9 µg/mL (≈ 12.5 µM)
- MIC: concentration required to lower the MIC of erythromycin from 240 μg/mL to 5 μg/mL ([10]; Table 7, P. aureginosa (ATCC 27853)): 3 µg/mL
- MBC (with erythromycin) ([10]; Table 7, P. aureginosa (ATCC 27853), erythromycin sensitization): 10 µg/mL
- FIC ([10]; Table 11, Pseudomonas aeruginosa ATCC 27853, erythromycin (by order)): 0.42
- concentration required to inhibit bacterial growth with antibiotic ([10]; Table 11, Pseudomonas aeruginosa ATCC 27853, erythromycin (by order) at 0.5, 1.0 or 3.0 μg/mL): 2.3 µg/mL
- MIC: concentration required to lower the MIC of novobiocin from >500 μg/mL to 1 μg/mL [11]: 6 µg/mL
- MBC [12]: 6.7 µg/mL (≈ 8.43 µM)
- MBC [13]: 3.8 µg/mL (≈ 4.78 µM)
- MBC [14]: 16 µg/mL (≈ 20.1 µM)
- MBC [15]: 3.2 µg/mL (≈ 4.02 µM)
- MBC [16]: 2.1 µg/mL (≈ 2.64 µM)
- MBC [17]: 50 µg/mL (≈ 62.9 µM)

From patent publication US7598234B2, “Steroid derived antibiotics” (Brigham Young University, priority 1998, dated 2009)
